In PMC7381750, “JP1 suppresses proliferation and metastasis of melanoma through MEK1/2 mediated NEDD4L-SP1-Integrin αvβ3 signaling” (Theranostics, 2020):

Test system: B16F10 cell
Experiment: B16F10 melanoma-bearing model, JP1 and DTIC alone or in combination
Type: in vivo, mouse
Method: (A-C) (A) Schematic representation of the B16F10 and MEWO cells melanoma-bearing model for JP1 treatment (n = 6 per group). JP1 and its control agents were administered by intraperitoneal injection. […] (D-G) (D) Schematic representation of the B16F10 cell melanoma passive metastasis model for JP1 treatment. JP1 and its control agents were administered by intraperitoneal injection. […] (F) The representative melanoma lung metastatic images by H&E-staining (scale bars, 1000 μm). […] (J-L) (J) Schematic representation of the B16F10 cell melanoma-bearing model (n= 6 per group). Both JP1 and DTIC alone or in combination treatments and relative control was administered by intraperitoneal injection in mice.
The chemotherapeutic agent dacarbazine (DTIC) is currently as the first line drug used to treat metastatic melanoma in clinic, and was reported to cause painful symptoms and acquired resistance, compromising patient quality of life. To determine the possibility as a combination therapy between DTIC and JP1, we completed a joint treatment of DTIC and JP1 for melanoma tumor-bearing model (Figure 2J).

liver HE staining (after DTIC treatment): significant degenerations in liver cells
Compound: CN(C)/N=N/c1[nH]cnc1C(N)=O [DTIC, dacarbazine]
body weight during treatment (80 mg/kg DTIC i.p.): lost body weight continuously during treatment
inhibitory effect on melanoma proliferation (80 mg/kg DTIC i.p., B16F10 melanoma-bearing mouse): more significant inhibitory effect on melanoma proliferation than that by 50 mg/kg JP1
